Publication PMC11697113, “The Hsc70 system maintains the synaptic SNARE protein SNAP-25 in an assembly-competent state and delays its aggregation [drawing 1]” (The Journal of Biological Chemistry, 2024)

Assays:
V438F Hsc70 = assay: ATPase activity of V438F Hsc70; assay type: biochemical, human; settings: V438F Hsc70 2 μM, peptide 200 μM; binding site blocked; three independent experiments (Fig. S3)
Source text: Hsp70s consist of an nucleotide-binding domain (NBD) and a substrate-binding domain (SBD). Hsc70 works using an allosteric mechanism whereby substrate binding at the SBD stimulates the ATP hydrolysis rate at the nucleotide-binding domain. The basal ATPase rate of Hsp70 is low, usually about 0.05 ± 0.009 mol Pi/mol protein, and increases when it is stimulated by binding of a peptide to the canonical site in the SBD. We measured the ability of SNAP-25 peptides SNNP and SNCP to stimulate the ATPase rate of Hsc70 (Fig. 5A). SNNP and SNCP binding cause a 1.5-fold increase of the Hsc70 ATPase rate over basal (observed rates upon addition of SNNP and SNCP were 0.089 ± 0.008 and 0.080 ± 0.005, respectively). In order to confirm that peptides are indeed binding at the canonical binding site of Hsc70, we used the V438F mutant that blocks the binding site ([37]). […] The addition of CSPαJ stimulates the ATPase activity of Hsc70 ∼4-fold with and without peptides.
We performed ATPase assays to observe the activity of Hsc70 in the presence of SNAP25 peptides. Hsc70 (2 μM) and peptide (200 μM) were incubated in HMK buffer with 1 mM DTT for 15 min followed by addition of 1 mM ATP and incubation at 37 °C for 1 h. […] Absorbance readings were taken at 620 nm using a BioTek plate reader. […]

Hsc70 = molecular target: T1, Hsc70 (Homo sapiens, UniProt P11142); assay: Methyl-TROSY NMR of Ile-13CH3-labeled Hsc70 with peptides; assay type: binding; settings: Ile-13CH3 Hsc70 40 μM, 25 °C, 600 MHz, pD 7.4
T1 construct: 6X His-tag (TEV-cleavable) (cleaved yes); made in house; host or cells: E. coli Rosetta (DE3)
Procedure: Figure 5 SNN and SNC peptides interact with the canonical substrate-binding site of Hsc70.A, ATPase activity of Hsc70 (2 μM) in the absence (gray) and presence of 200 μM SNNP (orange) and SNCP (green) peptides. Error bars represent the SDs from three independent experiments. B, binding of SNAP-25 (black), SNNP (orange), LoopP (blue), and SNCP (green) peptides to Hsc70 followed by competition for FITC-p5 peptide using fluorescence anisotropy. Increasing concentrations of the competitors were added to a complex of Hsc70 (5 μM) and FITC-p5 peptide (50 nM). Error bars represent SDs from three independent experiments. C, structure of the canonical substrate-binding site of human HspA1 (PDB 4po2) illustrating the location of Hsc70 residues Ile 403 and Ile 440 in red and green spheres, respectively (N.B., Hsc70 and HspA1 share […] sequence identity). The SBD is shown in gray, bound substrate in cyan sticks, and the side chain of the residue occupying the 0th position in the chaperone (“anchor residue”) in orange ball and sticks. For better visualization of the substrate-binding site, residues 512 to 613, 405 to 408, and 431 were removed in this illustration of the structure. D, the Ile region of the ^1H-^13 C HMQC spectra of Ile-^13CH3-labeled Hsc70 (40 μM) in the absence (black) and in the presence of unlabeled SNNP (orange) and SNCP (green) peptides (200 μM).
To directly observe binding of SNAP-25 peptides to Hsc70, we used methyl-TROSY NMR. We recorded the spectra of complexes between peptides containing the Hsc70 binding sites of SNAP-25 and Hsc70 selectively labeled (^1H,^13 C) at Ile δ1-methyl positions in a ^2H, ^12C background. We had previously found using the Escherichia coli Hsp70, DnaK, that the δ1-methyl chemical shifts of Ile 401 and 438, which contact the central residue of the bound peptide (anchor residue, Fig. 5C), change markedly depending on the identity of the bound anchor residue and the orientation of the peptide backbone with respect to DnaK ([38]). In Hsc70, the side chains of Ile 403 and 440 are similarly arranged with respect to the anchor residue of the bound peptide as Ile 401 and 438 are in DnaK (Fig. 5C) allowing us to use their δ1-methyl chemical shifts to assess directly how the chaperone binds to SNAP-25 peptides SNNP and SNCP. We confirmed the assignment of Ile 403 and Ile 440 chemical shifts by mutating these residues to Leu and collecting methyl-TROSY NMR spectra. The Hsp70 SBD site that binds the anchor residue (termed the 0th pocket) is most frequently occupied by Leu or Ile and less commonly by Val, Pro, or Met ([38], [39], [40], [41]). […]
NMR experiments were carried out at 25 °C on a 600 MHz Bruker Avance III spectrometer equipped with a CryoProbe. Data were processed with NMRPipe and analyzed using ccpNMR Analysis. […]

T1 sequence (P11142 whole entry): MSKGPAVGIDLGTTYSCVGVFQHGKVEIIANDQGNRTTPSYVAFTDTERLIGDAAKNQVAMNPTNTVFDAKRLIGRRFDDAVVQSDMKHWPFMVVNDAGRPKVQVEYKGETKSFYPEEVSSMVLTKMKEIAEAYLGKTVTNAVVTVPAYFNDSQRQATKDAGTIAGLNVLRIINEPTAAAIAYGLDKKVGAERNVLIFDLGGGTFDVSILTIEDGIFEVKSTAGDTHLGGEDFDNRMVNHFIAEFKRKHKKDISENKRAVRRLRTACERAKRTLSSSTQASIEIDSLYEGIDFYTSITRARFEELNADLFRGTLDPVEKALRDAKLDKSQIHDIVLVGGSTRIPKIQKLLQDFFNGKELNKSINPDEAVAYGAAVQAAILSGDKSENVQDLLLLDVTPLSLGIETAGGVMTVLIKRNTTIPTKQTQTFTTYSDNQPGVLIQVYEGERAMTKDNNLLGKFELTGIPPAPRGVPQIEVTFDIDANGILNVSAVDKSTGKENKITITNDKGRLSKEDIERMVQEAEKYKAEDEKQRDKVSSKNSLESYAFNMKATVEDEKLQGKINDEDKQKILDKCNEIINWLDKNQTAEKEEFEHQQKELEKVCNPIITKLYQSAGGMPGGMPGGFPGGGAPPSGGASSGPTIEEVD

Sequence: EREQMAISGGFIRR [SNCP, peptide … from the LOOP-SNC domain of SNAP-25]
- enhancement of V438F Hsc70 ATPase activity (V438F Hsc70): did not enhance its ATPase activity
- Ile 403 and 440 δ1-methyl signals on complex formation (Hsc70): indeed shift upon complex formation
- Ile 440 chemical shift splitting (binding modes) (Hsc70): split into two signals

Sequence: RRMLQLVEESK [SNNP, peptide … from the SNN domain of SNAP-25]
- enhancement of V438F Hsc70 ATPase activity (V438F Hsc70): did not enhance its ATPase activity
- Ile 403 and 440 δ1-methyl signals on complex formation (Hsc70): indeed shift upon complex formation
- Ile 440 and 403 δ1-methyl chemical shift splitting (binding modes) (Hsc70): split into two resonances each
